Test results taken from US20240269139A1, “COMPOUNDS FOR TARGETED PROTEIN DEGRADATION OF KINASES” (DANA-FARBER CANCER INSTITUTE, INC., priority 2020, published 2024).
Like-named read-outs stand apart in the source and are kept apart here.

Columns and labels:
Type in all cases: cell-based
[1] = target: protein kinases (human kinome) (Homo sapiens, UniProt P11802)
Excerpt: (§1) Although development of targeted protein degraders requires a POI binder, among already-liganded proteins such as kinases, it was hypothesized that different targets would have a different propensity for current approaches to degrader-mediated destruction, which was termed ‘degradability’. […] It was rationalized that the probability of identifying the same kinase as a false positive in multiple treatments is low, therefore this analysis served to also assess the robustness of our data and subsequent interpretations. […] Overall, 62 protein kinases were degraded in more than 10 independent treatments, and remarkably, 9 of these (CDK4, AURKA, FER, WEE1, BLK. LIMK2, CDK6, GAK, LIMK1) were each degraded in at least 40 of the 154 independent treatments, emphasizing their predisposition to induced degradation (FIG. 1G; Appendix I).
(§2) Next, the frequency of degradation assessment was corrected for over-representation of molecules in the full dataset by omitting replicate profiling of compounds under different experimental conditions, to remove any bias. […] Unsurprisingly, the top degradable kinases mirror those from the previous analysis (CDK4, AURKA, FER, WEE1, BLK), confirming that in sufficiently large datasets, even with over-representation of certain molecules, frequency of degradation is a good measure of general tractability.

[2] = target: protein kinases (human kinome) (Homo sapiens, UniProt P30291); conditions: for logFC of WEE1: WEE1 P30291-1
Excerpt: as §1, §2

[3] = target: protein kinases (human kinome) (Homo sapiens, UniProt Q00534); conditions: for logFC CDK6: CDK6 (Q00534), direction down; for logFC of CDK6 (Q00534): down
Excerpt: as §1, §2

[4] = target: protein kinases (human kinome) (Homo sapiens, UniProt Q15118); conditions: PDK1 Q15118; experiment wp084
Excerpt: as §1, §2

[5] = target: protein kinases (human kinome) (Homo sapiens, UniProt P53671); conditions: for logFC of LIMK2: LIMK2 P53671
Excerpt: as §1, §2

[6] = target: T1, protein kinases (human kinome) (Homo sapiens, UniProt Q08881); conditions: experiment wp134
T1 sequence (Q08881 1-620): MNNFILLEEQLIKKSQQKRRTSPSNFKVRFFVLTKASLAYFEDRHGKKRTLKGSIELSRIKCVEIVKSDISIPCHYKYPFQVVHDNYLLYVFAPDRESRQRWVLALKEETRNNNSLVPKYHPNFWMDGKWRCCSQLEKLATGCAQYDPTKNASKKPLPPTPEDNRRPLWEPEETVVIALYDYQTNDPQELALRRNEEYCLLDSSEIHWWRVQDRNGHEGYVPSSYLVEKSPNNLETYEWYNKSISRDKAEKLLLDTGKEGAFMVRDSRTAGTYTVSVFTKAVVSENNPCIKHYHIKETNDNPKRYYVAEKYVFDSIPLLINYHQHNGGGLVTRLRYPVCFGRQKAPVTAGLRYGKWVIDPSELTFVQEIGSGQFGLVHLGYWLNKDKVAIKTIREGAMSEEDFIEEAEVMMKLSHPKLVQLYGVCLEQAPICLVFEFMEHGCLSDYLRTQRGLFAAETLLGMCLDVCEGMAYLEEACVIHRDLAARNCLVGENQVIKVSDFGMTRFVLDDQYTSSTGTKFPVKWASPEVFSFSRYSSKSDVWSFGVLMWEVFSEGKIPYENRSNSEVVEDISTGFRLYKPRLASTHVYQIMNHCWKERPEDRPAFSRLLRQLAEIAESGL
Excerpt: as §1, §2

[7] = target: protein kinases (human kinome) (Homo sapiens, UniProt P41240); conditions: experiment wp045
Excerpt: as §1, §2

[8] = target: protein kinases (human kinome) (Homo sapiens, UniProt P42684)
Excerpt: as §1, §2

[9] = target: protein kinases (human kinome) (Homo sapiens, UniProt P51451); conditions: for logFC of BLK (P51451): down
Excerpt: as §1, §2

[10] = target: protein kinases (human kinome) (Homo sapiens, UniProt Q16539)
Excerpt: as §1, §2

[11] = tested on: protein kinases (human kinome); conditions: for logFC MAPK14: experiment wp047
Excerpt: as §1, §2

[12] = target: protein kinases (human kinome) (Homo sapiens, UniProt P53667); conditions: LIMK1 (P53667-1), experiment wp149
Excerpt: as §1, §2

[13] = target: T2, protein kinases (human kinome) (Homo sapiens, UniProt Q9UEE5); conditions: STK17A Q9UEE5; experiment wp149
T2 sequence (Q9UEE5 1-414): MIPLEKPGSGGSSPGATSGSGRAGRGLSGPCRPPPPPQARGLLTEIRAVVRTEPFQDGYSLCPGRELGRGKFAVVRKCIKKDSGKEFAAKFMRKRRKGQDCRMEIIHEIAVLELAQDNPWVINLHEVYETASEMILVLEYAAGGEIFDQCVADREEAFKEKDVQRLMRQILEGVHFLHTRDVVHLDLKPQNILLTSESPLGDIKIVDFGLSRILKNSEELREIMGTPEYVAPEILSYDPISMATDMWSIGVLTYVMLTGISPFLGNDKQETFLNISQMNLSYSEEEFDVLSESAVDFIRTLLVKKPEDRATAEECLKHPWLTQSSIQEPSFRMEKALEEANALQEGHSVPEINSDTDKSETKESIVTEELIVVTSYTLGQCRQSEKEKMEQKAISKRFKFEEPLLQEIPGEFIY
Excerpt: as §1, §2

Sequence of protein kinases (human kinome) (Homo sapiens, UniProt P11802) (P11802 whole entry): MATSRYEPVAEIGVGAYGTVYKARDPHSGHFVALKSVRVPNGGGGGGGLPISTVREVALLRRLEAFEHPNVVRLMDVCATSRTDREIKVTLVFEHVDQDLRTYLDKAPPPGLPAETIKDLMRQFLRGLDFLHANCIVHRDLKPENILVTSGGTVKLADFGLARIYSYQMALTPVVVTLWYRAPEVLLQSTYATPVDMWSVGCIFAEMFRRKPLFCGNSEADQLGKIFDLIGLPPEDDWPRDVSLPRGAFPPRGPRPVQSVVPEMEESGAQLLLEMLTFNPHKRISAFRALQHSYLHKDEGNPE
Sequence of protein kinases (human kinome) (Homo sapiens, UniProt P30291) (P30291 whole entry): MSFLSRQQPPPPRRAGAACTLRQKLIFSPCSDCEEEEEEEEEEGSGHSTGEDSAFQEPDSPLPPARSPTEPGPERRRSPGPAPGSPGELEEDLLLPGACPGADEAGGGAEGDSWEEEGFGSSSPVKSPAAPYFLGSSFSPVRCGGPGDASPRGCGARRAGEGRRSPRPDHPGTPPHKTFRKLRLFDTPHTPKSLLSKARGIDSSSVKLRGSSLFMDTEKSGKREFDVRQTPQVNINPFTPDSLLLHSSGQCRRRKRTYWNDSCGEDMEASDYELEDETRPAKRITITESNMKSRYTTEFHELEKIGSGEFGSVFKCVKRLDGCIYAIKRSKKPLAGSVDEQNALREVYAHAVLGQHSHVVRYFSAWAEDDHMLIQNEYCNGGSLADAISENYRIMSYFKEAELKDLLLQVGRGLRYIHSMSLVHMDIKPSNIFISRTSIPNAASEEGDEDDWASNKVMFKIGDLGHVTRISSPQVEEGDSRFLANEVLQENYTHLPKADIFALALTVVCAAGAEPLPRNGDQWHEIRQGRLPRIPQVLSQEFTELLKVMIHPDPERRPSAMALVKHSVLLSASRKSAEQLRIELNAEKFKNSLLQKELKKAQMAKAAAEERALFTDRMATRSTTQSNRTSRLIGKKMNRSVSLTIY
Sequence of protein kinases (human kinome) (Homo sapiens, UniProt P51451) (P51451 whole entry): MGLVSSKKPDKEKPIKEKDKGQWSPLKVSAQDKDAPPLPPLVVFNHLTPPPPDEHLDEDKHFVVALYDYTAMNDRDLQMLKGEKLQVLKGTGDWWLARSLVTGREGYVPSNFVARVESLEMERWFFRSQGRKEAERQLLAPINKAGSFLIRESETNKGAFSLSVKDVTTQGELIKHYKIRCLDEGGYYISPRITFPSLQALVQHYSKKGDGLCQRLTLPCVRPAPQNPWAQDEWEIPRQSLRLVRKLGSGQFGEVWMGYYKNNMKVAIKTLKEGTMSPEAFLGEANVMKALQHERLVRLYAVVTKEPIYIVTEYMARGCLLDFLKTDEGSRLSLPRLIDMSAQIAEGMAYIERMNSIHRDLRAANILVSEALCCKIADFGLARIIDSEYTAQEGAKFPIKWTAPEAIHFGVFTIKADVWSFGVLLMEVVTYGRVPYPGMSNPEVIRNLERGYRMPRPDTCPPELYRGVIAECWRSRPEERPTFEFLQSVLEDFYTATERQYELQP
Sequence of protein kinases (human kinome) (Homo sapiens, UniProt Q00534) (Q00534 whole entry): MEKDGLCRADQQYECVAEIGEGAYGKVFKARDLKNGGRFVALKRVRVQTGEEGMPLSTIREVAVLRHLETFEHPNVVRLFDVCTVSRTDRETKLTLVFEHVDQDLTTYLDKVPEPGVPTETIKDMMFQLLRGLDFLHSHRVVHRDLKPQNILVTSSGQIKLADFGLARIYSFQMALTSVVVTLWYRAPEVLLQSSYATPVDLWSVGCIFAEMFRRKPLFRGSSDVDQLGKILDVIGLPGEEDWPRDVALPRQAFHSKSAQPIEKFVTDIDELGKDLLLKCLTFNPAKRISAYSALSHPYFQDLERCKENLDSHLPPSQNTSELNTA
Sequence of protein kinases (human kinome) (Homo sapiens, UniProt P53671) (P53671 whole entry): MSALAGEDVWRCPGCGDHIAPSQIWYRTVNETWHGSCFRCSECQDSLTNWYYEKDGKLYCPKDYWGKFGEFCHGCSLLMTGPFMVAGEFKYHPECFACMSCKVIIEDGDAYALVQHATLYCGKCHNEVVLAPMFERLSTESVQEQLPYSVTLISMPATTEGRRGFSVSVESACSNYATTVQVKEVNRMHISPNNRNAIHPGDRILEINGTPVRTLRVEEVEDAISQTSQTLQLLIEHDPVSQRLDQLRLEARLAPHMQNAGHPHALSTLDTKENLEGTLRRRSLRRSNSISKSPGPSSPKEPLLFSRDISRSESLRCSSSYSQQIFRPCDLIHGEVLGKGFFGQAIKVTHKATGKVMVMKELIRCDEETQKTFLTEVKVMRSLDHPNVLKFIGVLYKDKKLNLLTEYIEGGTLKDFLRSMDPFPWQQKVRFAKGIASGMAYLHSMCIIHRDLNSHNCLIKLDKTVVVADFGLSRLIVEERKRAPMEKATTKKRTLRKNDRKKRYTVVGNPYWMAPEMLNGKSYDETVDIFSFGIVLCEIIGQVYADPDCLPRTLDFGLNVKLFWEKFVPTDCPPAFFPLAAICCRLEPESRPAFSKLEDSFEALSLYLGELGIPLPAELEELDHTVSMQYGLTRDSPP
Sequence of protein kinases (human kinome) (Homo sapiens, UniProt Q15118) (Q15118 29-436): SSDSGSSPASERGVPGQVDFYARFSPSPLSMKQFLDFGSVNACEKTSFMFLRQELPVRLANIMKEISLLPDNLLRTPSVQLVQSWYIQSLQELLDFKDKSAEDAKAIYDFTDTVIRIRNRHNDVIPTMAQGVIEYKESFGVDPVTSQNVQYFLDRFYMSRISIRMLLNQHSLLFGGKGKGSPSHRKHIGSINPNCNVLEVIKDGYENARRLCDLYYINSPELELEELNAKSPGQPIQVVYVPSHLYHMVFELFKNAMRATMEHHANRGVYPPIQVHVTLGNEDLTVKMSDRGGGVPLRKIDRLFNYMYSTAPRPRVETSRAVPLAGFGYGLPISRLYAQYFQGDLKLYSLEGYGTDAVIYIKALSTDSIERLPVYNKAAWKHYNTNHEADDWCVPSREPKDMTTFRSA
Sequence of protein kinases (human kinome) (Homo sapiens, UniProt Q16539) (Q16539 whole entry): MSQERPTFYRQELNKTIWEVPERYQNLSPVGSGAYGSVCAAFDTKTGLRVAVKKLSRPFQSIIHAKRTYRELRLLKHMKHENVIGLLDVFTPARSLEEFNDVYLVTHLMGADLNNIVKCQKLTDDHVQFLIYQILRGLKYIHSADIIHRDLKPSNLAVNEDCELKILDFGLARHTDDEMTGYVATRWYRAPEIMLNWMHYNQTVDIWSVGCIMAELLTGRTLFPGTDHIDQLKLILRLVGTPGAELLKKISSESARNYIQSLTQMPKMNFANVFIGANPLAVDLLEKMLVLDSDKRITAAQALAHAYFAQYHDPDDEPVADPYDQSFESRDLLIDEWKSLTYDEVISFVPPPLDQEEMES
Sequence of protein kinases (human kinome) (Homo sapiens, UniProt P41240) (P41240 whole entry): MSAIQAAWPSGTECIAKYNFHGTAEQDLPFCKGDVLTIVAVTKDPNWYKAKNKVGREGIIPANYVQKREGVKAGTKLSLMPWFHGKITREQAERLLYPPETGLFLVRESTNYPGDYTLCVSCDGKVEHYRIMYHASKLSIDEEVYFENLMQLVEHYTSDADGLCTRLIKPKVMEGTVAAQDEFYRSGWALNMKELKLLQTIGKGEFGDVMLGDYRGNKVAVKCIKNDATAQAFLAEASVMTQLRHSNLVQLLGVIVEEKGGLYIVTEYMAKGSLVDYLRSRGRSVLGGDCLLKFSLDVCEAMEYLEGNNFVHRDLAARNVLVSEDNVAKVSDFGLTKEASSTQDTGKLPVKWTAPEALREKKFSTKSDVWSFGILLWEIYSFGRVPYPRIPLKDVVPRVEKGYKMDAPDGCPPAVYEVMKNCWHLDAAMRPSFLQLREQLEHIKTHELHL
Sequence of protein kinases (human kinome) (Homo sapiens, UniProt P42684) (P42684 whole entry): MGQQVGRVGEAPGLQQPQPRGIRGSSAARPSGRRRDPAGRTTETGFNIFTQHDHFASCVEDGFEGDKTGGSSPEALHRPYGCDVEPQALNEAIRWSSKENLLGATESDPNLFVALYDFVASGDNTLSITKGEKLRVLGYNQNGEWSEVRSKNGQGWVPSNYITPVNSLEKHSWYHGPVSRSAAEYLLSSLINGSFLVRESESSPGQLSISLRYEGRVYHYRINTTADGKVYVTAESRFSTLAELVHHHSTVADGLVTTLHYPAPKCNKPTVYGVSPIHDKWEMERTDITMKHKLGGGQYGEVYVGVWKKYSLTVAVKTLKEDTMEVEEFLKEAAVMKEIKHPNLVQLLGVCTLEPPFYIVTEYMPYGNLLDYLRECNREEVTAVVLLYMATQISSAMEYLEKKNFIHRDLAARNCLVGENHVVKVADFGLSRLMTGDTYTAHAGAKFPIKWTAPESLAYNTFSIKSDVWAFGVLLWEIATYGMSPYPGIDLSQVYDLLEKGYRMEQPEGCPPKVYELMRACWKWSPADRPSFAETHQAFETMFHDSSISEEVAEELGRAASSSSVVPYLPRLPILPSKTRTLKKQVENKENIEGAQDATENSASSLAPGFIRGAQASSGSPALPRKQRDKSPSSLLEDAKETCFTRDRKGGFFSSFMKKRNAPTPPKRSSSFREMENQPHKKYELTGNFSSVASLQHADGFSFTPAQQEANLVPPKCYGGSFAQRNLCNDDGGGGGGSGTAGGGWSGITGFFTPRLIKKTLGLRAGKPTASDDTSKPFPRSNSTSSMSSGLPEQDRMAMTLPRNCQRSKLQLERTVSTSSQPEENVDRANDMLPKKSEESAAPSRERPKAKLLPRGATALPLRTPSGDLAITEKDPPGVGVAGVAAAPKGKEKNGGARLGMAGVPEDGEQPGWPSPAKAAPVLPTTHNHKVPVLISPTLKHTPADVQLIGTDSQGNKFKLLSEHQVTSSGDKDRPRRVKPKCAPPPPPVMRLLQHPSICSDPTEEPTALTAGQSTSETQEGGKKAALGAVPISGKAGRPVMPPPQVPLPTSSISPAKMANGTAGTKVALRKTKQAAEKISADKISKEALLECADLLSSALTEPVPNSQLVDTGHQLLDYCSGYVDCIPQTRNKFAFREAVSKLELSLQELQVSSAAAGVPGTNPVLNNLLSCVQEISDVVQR

Structure (SMILES): CC(=O)c1c(C)c2cnc(Nc3ccc(N4CCN(CCCCNC(=O)COc5cccc6c5C(=O)N(C5CCC(=O)NC5=O)C6=O)CC4)cn3)nc2n(C2CCCC2)c1=O (centres unmarked) [BSJ.03.204]
- logFC CDK4 (P11802) ([1]; experiment wp084): −2.162
- logFC CDK4 (P11802) ([1]; experiment wp137): −2.118
- logFC of WEE1 ([2]; experiment wp084): −0.5774
- logFC of WEE1 ([2]; experiment wp137): −0.6759
- logFC WEE1 (P30291-1) ([2]; experiment wp084): −0.5774
- logFC WEE1 (P30291-1) ([2]; experiment wp137): −0.6759
- logFC CDK6 ([3]; experiment wp084): −3.574
- logFC CDK6 ([3]; experiment wp137): −2.866
- logFC of CDK6 (Q00534) ([3]; Experiment wp084): −3.574
- logFC of CDK6 (Q00534) ([3]; Experiment wp137): −2.866
- logFC [4]: −0.3767
- logFC PDK1 [4]: −0.3767

Structure (SMILES): COc1cc(C)c(Sc2cnc(NC(=O)c3ccc(N4CCN(CCCCCCCNC(=O)COc5cccc6c5C(=O)N(C5CCC(=O)NC5=O)C6=O)CC4)cc3)s2)cc1C(=O)N1CCN(C(C)=O)CC1 (centres unmarked) [BSJ.05.037]
- logFC of LIMK2 ([5]; experiment wp134): −0.4981
- logFC ITK (Q08881) [6]: −1.816

Structure (SMILES): Cc1nc(Nc2ncc(C(=O)Nc3c(C)cccc3Cl)s2)cc(N2CCN(CC(=O)NCCCCNC(=O)COc3cccc4c3C(=O)N(C3CCC(=O)NC3=O)C4=O)CC2)n1 (centres unmarked) [DB.3.291]
- logFC WEE1 (P30291-1) ([2]; experiment wp045): −0.4161
- logFC of CSK ([7]; Accession P41240): −2.257
- logFC CSK ([7]; CSK (P41240), down): −2.257
- logFC ([8]; ABL2 (P42684) protein abundance, degrader vs DMSO, down): −0.3739
- logFC ABL2 (P42684) ([8]; Experiment wp045): −0.3739
- logFC of BLK ([9]; BLK P51451, experiment wp045): −0.5857
- logFC of BLK (P51451) ([9]; Experiment wp045): −0.5857

Structure (SMILES): Cc1ccc(NC(=O)c2cccc(C(C)(C)C#N)c2)cc1Nc1ccc2ncn(CCOCCOCCC(=O)N[C@H](C(=O)N3C[C@H](O)C[C@H]3C(=O)NCc3ccc(-c4scnc4C)cc3)C(C)(C)C)c(=O)c2c1 [DD.02.198]
- logFC ([10]; MAPK14 (Q16539) protein abundance, degrader vs DMSO, down): −1.387
- logFC MAPK14 ([10]; MAPK14, accession Q16539, experiment wp047, direction of change down): −1.387
- logFC MAPK14 ([11]; MAPK14, accession Q16539-2, direction of change down): −0.617
- logFC MAPK14 ([11]; MAPK14 Q16539-2): −0.617

Structure (SMILES): CN1c2ccccc2C(=O)Nc2cnc(Nc3ccc(N4CCN(C(=O)CCOCCNc5cccc6c5C(=O)N(C5CCC(=O)NC5=O)C6=O)CC4)cc3)nc21 (centres unmarked) [ZNL.03.127]
- logFC BLK ([9]; BLK (P51451), direction down, experiment wp149): −0.5024
- logFC of BLK (P51451) ([9]; Experiment wp149): −0.5024
- logFC LIMK1 ([12]; direction down): −0.4764
- logFC LIMK1 ([12]; down): −0.4764
- logFC LIMK2 ([5]; LIMK2 (P53671), experiment wp149, down): −0.3944
- logFC of LIMK2 ([5]; experiment wp149): −0.3944
- logFC [13]: −0.4605
- logFC STK17A [13]: −0.4605
- logFC TNK2 (Q07912-3) ([11]; Experiment wp149, direction down): −0.8778
- logFC ([11]; TNK2 (Q07912-3), experiment wp149, direction down): −0.8778
